Here are results for 10 compounds from paper PMC11579945, “Identification of Potential Inhibitors of Mycobacterium tuberculosis Amidases: An Integrated In Silico and Experimental Study” (ACS Omega, 2024).

For assay [1], the target named is T1, Ami1 (Mycobacterium tuberculosis, UniProt I6Y4D2). Briefly: Differential scanning fluorimetry (DSF, thermal shift) with Ami1. To be noted: for Kd: 10 μM Ami1, fitted with Thermott, triplicate, read-out: dissociation constant (Kd); for increase of the melting temperature (Tm) of the amidase: compared to Tm of the protein in the absence of any compound. The class given is binding. Here is the method: DSF assays were conducted using a QuantStudio3 real-time PCR system from Thermo Fisher Scientific, with a MicroAmp Fast 96-well reaction plate and covered with the MicroAmp Optical Adhesive Film (both from Thermo Fisher Scientific). The final reaction volume in each well was 20 μL, containing 10 μM Ami1 in buffer (20 mM HEPES pH 7.5, 100 mM NaCl, 1% DMSO) and 5× SYPRO Orange, either in the absence or presence of various concentrations of compounds. As a control, identical experiments were performed without protein. The temperature was increased from 25 to 99 °C at a gradual rate of 0.2 °C per 12.5 s. Data analysis and dissociation constants (Kd) were determined using the Thermott web application (https://thermott.com).[37],[38] Melting curves were exported from Thermott and visualized using the GraphPad Prism program. All experiments were performed by triplicate.
T1 sequence (I6Y4D2 25-241 limits assumed): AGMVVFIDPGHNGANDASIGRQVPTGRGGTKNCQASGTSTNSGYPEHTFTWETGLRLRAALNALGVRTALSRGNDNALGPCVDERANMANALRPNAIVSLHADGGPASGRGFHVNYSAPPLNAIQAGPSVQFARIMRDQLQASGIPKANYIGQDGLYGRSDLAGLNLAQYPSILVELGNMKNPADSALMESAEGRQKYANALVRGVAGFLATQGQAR

Assay [2] has as its target T1, Ami1. To be noted: 10 mM EDTA; cited from earlier work.
Assay [3] deals with T1, Ami1. It is filed as binding. To be noted: ITC.
A further assay deals with Ami1Mab. Also on record: method as in PMID 33158165. As to conditions: cited from earlier work.

“And” between values parts separate entries of the source, which are not always exact repeats. Identical values can stand only once.

`O=C(NNc1ccc([N+](=O)[O-])cc1[N+](=O)[O-])c1ccccc1` [1a, N′-(2,4-Dinitrophenyl)benzohydrazide]: at Ami1 [1] (DSF), the Kd came out at 2.71 ± 0.55 µM.
As for `COc1ccc(C(=O)NNc2ccc([N+](=O)[O-])cc2[N+](=O)[O-])cc1` [1b, N′-(2,4-Dinitrophenyl)-4-methoxybenzohydrazide], the Kd on Ami1 [1] (DSF) was 4.27 ± 1.13 µM.
The same measure, in the same setting: the value for `O=C(NNc1ccc([N+](=O)[O-])cc1[N+](=O)[O-])c1ccc(Cl)cc1` [1c, 4-Chloro-N′-(2,4-dinitrophenyl)benzohydrazide] was 9.07 ± 1.88 µM.
Same read-out and setting: the value for `O=C(NNc1ccc([N+](=O)[O-])cc1[N+](=O)[O-])c1ccc(F)cc1` [1d, N′-(2,4-Dinitrophenyl)-4-fluorobenzohydrazide] was 1.65 ± 0.39 µM.
For the compound `O=C(C=Cc1ccccc1)NNc1ccc([N+](=O)[O-])cc1[N+](=O)[O-]` [1e, N′-(2,4-Dinitrophenyl)cinnamohydrazide], at Ami1 [1] (DSF), the “increase in Kd compared with derivates 1a–1d” value is on record as 10 fold and the Kd came to 36.1 ± 7.1 µM.
Turning to `O=C(NNc1ccc([N+](=O)[O-])cc1[N+](=O)[O-])C1CC1` [1f, N′-(2,4-Dinitrophenyl)cyclopropanecarbohydrazide], the “interaction with Ami1” value on Ami1 [1] (DSF dose-response) is “no interaction”.
Turning to `O=C(O)CN(CCN(CC(=O)O)CC(=O)O)CC(=O)O` [EDTA], on Ami1 [2], the “hydrolytic activity of Ami1 after treatment” value is recorded as “abolished”.
Turning to `O=C(NNc1ccc([N+](=O)[O-])cc1[N+](=O)[O-])C1CC1c1ccccc1` (stereo not shown) [compound 1], on Ami1 [1] (DSF), the Kd amounted to 6.69 ± 0.79 µM. The “increase of the melting temperature (Tm) of the amidase” value on Ami1 [1] was “approximately 2 °C”.
Consider `Ic1ccccc1-c1nn[nH]n1` [compound 5], for which, at Ami1 [1] (DSF), the Kd was 39 ± 6.1 µM. The “increase of the melting temperature (Tm) of the amidase” value on Ami1 [1] was “approximately 2 °C”. For the same compound, at Ami1 [3] (25 °C, pH 7.5), the ΔGb entry was “–6.02 kcal/mol” and the ΔHb entry is “–0.37 ± 0.08 kcal/mol”. The “n (stoichiometry)” value on Ami1 [3] (single binding-site model) is 0.7 and 0.7 ± 0.1.
In the case of `Nc1ccccc1-c1nnn[nH]1` [inhibitor II], the “concentration from which inhibition of the hydrolytic activity of Ami1Mab was observed” value in the assay with Ami1Mab is not below 800 µM.

In general, Kd refers to the constant that tells how readily two partners part at equilibrium.
